Values of other authors as cited in patent US10302625B2, “Peripheral measure of central brain inflammation, markers therefor and uses thereof” (CENTRE FOR ADDICTION AND MENTAL HEALTH, priority 2015, dated 2019).

Target: T1, TSPO (Sus scrofa, UniProt Q6UN27)
T1 sequence (Q6UN27 1-169): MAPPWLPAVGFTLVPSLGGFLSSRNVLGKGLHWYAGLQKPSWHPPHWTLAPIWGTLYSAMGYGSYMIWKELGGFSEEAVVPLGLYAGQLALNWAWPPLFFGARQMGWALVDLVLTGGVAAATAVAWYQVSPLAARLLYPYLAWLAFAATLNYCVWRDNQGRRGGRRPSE
Conditions: literature ref 19

For `CC(=O)N(Cc1ccccc1OCC[18F])c1cnccc1Oc1ccccc1` [[18F]FEPPA], the “affinity for TSPO” value is listed as “high, selective affinity for TSPO”.
